The source of these data is PMC9856672, “SGC-CAMKK2-1: A Chemical Probe for CAMKK2” (Cells, 2023).

For one assay, the target named is T1, PIM3 (Homo sapiens, UniProt Q86V86).
T1 construct: purchased Eurofins DiscoverX KINOMEscan
Nature of the assay: KINOMEscan 1 μM, PIM3. Type of assay: binding. As to conditions: 1000 nM; Entrez PIM3; read-out: Percent Control. The source says: (§1) Supplement cells-12-00287-s001.zip/File S2. KinomeScan data for the CAMKK2 probe and negative control.xlsx, sheet "SGC-CAMKK2-1" | column: Percent Control

A further assay concerns the target T2, LKB1 (Homo sapiens, UniProt Q15831).
T2 construct: purchased Eurofins DiscoverX KINOMEscan
Put plainly: KINOMEscan 1 μM, LKB1. As to conditions: 1000 nM; Entrez STK11; read-out: Percent Control. Format: binding.
Text: as §1

The target in a further assay is T3, CDC2L2 (Homo sapiens, UniProt Q9UQ88).
T3 construct: purchased Eurofins DiscoverX KINOMEscan
Nature of the assay: KINOMEscan 1 μM, CDC2L2. As to conditions: 1000 nM; Entrez CDC2L2; read-out: Percent Control. Format: binding.
Text: as §1

A further assay has as its system EGFR(L747-T751del,Sins). Nature of the assay: KINOMEscan 1 μM, EGFR(L747-T751del,Sins). Type of assay: binding, human. As to conditions: 1000 nM; Entrez EGFR.
Text: as §1

For a further assay, the target named is T4, NEK1 (Homo sapiens, UniProt Q96PY6).
T4 construct: purchased Eurofins DiscoverX KINOMEscan
Put plainly: KINOMEscan 1 μM, NEK1. Type of assay: binding. The settings on record: 1000 nM; Entrez NEK1; read-out: Percent Control.
Text: as §1

The target in a further assay is T5, EGFR (Homo sapiens, UniProt P00533).
T5 construct: purchased Eurofins DiscoverX KINOMEscan
Nature of the assay: KINOMEscan 1 μM, EGFR. Format: binding. The settings on record: 1000 nM; Entrez EGFR; read-out: Percent Control.
Text: as §1

The target in the next assay is T6, CSF1R (Homo sapiens, UniProt P07333).
T6 construct: purchased Eurofins DiscoverX KINOMEscan
Put plainly: KINOMEscan 1 μM, CSF1R. Type of assay: binding. As to conditions: 1000 nM; Entrez CSF1R; read-out: Percent Control.
Text: as §1

The target in the next assay is T7, DCAMKL3 (Homo sapiens, UniProt Q9C098).
T7 construct: purchased Eurofins DiscoverX KINOMEscan
Nature of the assay: KINOMEscan 1 μM, DCAMKL3. Format: binding. As to conditions: 1000 nM; Entrez DCLK3; read-out: Percent Control.
Text: as §1

The next assay has as its target T8, DRAK2 (Homo sapiens, UniProt O94768).
T8 construct: purchased Eurofins DiscoverX KINOMEscan
Nature of the assay: KINOMEscan 1 μM, DRAK2. Type of assay: binding. The settings on record: 1000 nM; Entrez STK17B; read-out: Percent Control.
Text: as §1

In another assay the target is T9, ERN1 (Homo sapiens, UniProt O75460).
T9 construct: purchased Eurofins DiscoverX KINOMEscan
Put plainly: KINOMEscan 1 μM, ERN1. Type of assay: binding. The settings on record: 1000 nM; Entrez ERN1; read-out: Percent Control.
Text: as §1

The target in the next assay is T10, GRK3 (Homo sapiens, UniProt P35626).
T10 construct: purchased Eurofins DiscoverX KINOMEscan
Put plainly: KINOMEscan 1 μM, GRK3. The settings on record: 1000 nM; Entrez ADRBK2; read-out: Percent Control. Format: binding.
Text: as §1

The target in another assay is T11, ICK (Homo sapiens, UniProt Q9UPZ9).
T11 construct: purchased Eurofins DiscoverX KINOMEscan
Put plainly: KINOMEscan 1 μM, ICK. The settings on record: 1000 nM; Entrez ICK; read-out: Percent Control. Type of assay: binding.
Text: as §1

For another assay, the target named is T12, PFPK5(P.falciparum) (Plasmodium falciparum, UniProt P61075).
T12 construct: purchased Eurofins DiscoverX KINOMEscan
Put plainly: DiscoverX KINOMEscan binding assay at 1 μM, PFPK5(P.falciparum). The settings on record: PFPK5(P.falciparum) (MAL13P1.279); Compound Concentration 1000 nM; read-out: Percent Control.
Text: as §1

In a further assay the target is T13, GSK3B (Homo sapiens, UniProt P49841).
T13 construct: purchased Eurofins DiscoverX KINOMEscan
Put plainly: KINOMEscan at 1 μM, GSK3B. Type of assay: binding. The settings on record: 1000 nM, read-out: Percent Control. The text has this: (§2) Supplement cells-12-00287-s001.zip/File S2. KinomeScan data for the CAMKK2 probe and negative control.xlsx, sheet "SGC-CAMKK2-1N" | column: Percent Control

Another assay has as its target T14, EPHB3 (Homo sapiens, UniProt P54753).
T14 construct: purchased Eurofins DiscoverX KINOMEscan
Put plainly: KINOMEscan at 1 μM, EPHB3. Format: binding. As to conditions: 1000 nM, read-out: Percent Control.
Text: as §2

The target in the next assay is T15, FGR (Homo sapiens, UniProt P09769).
T15 construct: purchased Eurofins DiscoverX KINOMEscan
Put plainly: KINOMEscan at 1 μM, FGR. Type of assay: binding. As to conditions: 1000 nM, read-out: Percent Control.
Text: as §2

The target in another assay is T16, EPHB4 (Homo sapiens, UniProt P54760).
T16 construct: purchased Eurofins DiscoverX KINOMEscan
Put plainly: KINOMEscan at 1 μM, EPHB4. Format: binding. As to conditions: 1000 nM, read-out: Percent Control.
Text: as §2

The target of another assay is T17, PAK6 (Homo sapiens, UniProt Q9NQU5).
T17 construct: purchased Eurofins DiscoverX KINOMEscan
Nature of the assay: KINOMEscan at 1 μM, PAK6. Type of assay: binding. The settings on record: 1000 nM, read-out: Percent Control.
Text: as §2

The target in assay [1] is T18, ABL1(Y253F)-phosphorylated (Homo sapiens, UniProt P00519, Y253F).
T18 construct: purchased Eurofins DiscoverX KINOMEscan
Nature of the assay: KINOMEscan at 1 μM, ABL1(Y253F)-phosphorylated. Format: binding. As to conditions: 1000 nM, read-out: Percent Control.
Text: as §2

In the next assay the target is T19, MST2 (Homo sapiens, UniProt Q13188).
T19 construct: purchased Eurofins DiscoverX KINOMEscan
Nature of the assay: KINOMEscan at 1 μM, MST2. Format: binding. The settings on record: 1000 nM, read-out: Percent Control.
Text: as §2

The next assay concerns the target T20, PRKCI (Homo sapiens, UniProt P41743).
T20 construct: purchased Eurofins DiscoverX KINOMEscan
Put plainly: KINOMEscan at 1 μM, PRKCI. The settings on record: 1000 nM, read-out: Percent Control. Format: binding.
Text: as §2

The next assay deals with T21, PIK3CA(E542K) (Homo sapiens, UniProt P42336, E542K).
T21 construct: purchased Eurofins DiscoverX KINOMEscan
Put plainly: KINOMEscan at 1 μM, PIK3CA(E542K). Type of assay: binding. As to conditions: 1000 nM, read-out: Percent Control.
Text: as §2

For a further assay, the target named is T22, ARK5 (Homo sapiens, UniProt O60285).
T22 construct: purchased Eurofins DiscoverX KINOMEscan
Nature of the assay: KINOMEscan at 1 μM, ARK5. Format: binding. The settings on record: 1000 nM, read-out: Percent Control.
Text: as §2

A further assay addresses T23, ACVR1 (Homo sapiens, UniProt Q04771).
T23 construct: purchased Eurofins DiscoverX KINOMEscan
Put plainly: KINOMEscan at 1 μM, ACVR1. Type of assay: binding. The settings on record: 1000 nM, read-out: Percent Control.
Text: as §2

Another assay concerns the target T24, AAK1 (Homo sapiens, UniProt Q2M2I8).
T24 construct: purchased Eurofins DiscoverX KINOMEscan
Put plainly: KINOMEscan at 1 μM, AAK1. Type of assay: binding. As to conditions: 1000 nM, read-out: Percent Control.
Text: as §2

The target in the next assay is T25, MEK3 (Homo sapiens, UniProt P46734).
T25 construct: purchased Eurofins DiscoverX KINOMEscan
Nature of the assay: KINOMEscan at 1 μM, MEK3. The settings on record: 1000 nM, read-out: Percent Control. Type of assay: binding.
Text: as §2

In a further assay the target is T26, FLT3-autoinhibited (Homo sapiens, UniProt P36888).
T26 construct: purchased Eurofins DiscoverX KINOMEscan
Nature of the assay: KINOMEscan at 1 μM, FLT3-autoinhibited. The settings on record: 1000 nM, read-out: Percent Control. Type of assay: binding.
Text: as §2

Another assay addresses T27, TLK1 (Homo sapiens, UniProt Q9UKI8).
T27 construct: purchased Eurofins DiscoverX KINOMEscan
Nature of the assay: KINOMEscan at 1 μM, TLK1. Format: binding. The settings on record: 1000 nM, read-out: Percent Control.
Text: as §2

For the next assay, the target named is T28, BRK (Homo sapiens, UniProt Q13882).
T28 construct: purchased Eurofins DiscoverX KINOMEscan
Nature of the assay: KINOMEscan at 1 μM, BRK. Type of assay: binding. As to conditions: 1000 nM, read-out: Percent Control.
Text: as §2

The next assay deals with T29, SRC (Homo sapiens, UniProt P12931).
T29 construct: purchased Eurofins DiscoverX KINOMEscan
Put plainly: KINOMEscan at 1 μM, SRC. The settings on record: 1000 nM, read-out: Percent Control. Format: binding.
Text: as §2

A further assay concerns the target T30, EPHA6 (Homo sapiens, UniProt Q9UF33).
T30 construct: purchased Eurofins DiscoverX KINOMEscan
Nature of the assay: KINOMEscan binding assay at 1 μM, EPHA6. As to conditions: Compound Concentration 1000 nM; read-out: Percent Control.
Text: as §2

For a further assay, the target named is T31, ERBB2 (Homo sapiens, UniProt P04626).
T31 construct: purchased Eurofins DiscoverX KINOMEscan
Nature of the assay: KINOMEscan binding assay at 1 μM, ERBB2. As to conditions: Compound Concentration 1000 nM; read-out: Percent Control.
Text: as §2

The next assay concerns the target T32, MAP3K15 (Homo sapiens, UniProt Q6ZN16).
T32 construct: purchased Eurofins DiscoverX KINOMEscan
Nature of the assay: KINOMEscan binding assay at 1 μM, MAP3K15. The settings on record: Compound Concentration 1000 nM; read-out: Percent Control.
Text: as §2

Another assay deals with T33, NEK9 (Homo sapiens, UniProt Q8TD19).
T33 construct: purchased Eurofins DiscoverX KINOMEscan
Put plainly: KINOMEscan binding assay at 1 μM, NEK9. As to conditions: Compound Concentration 1000 nM; read-out: Percent Control.
Text: as §2

The next assay deals with T34, PLK4 (Homo sapiens, UniProt O00444).
T34 construct: purchased Eurofins DiscoverX KINOMEscan
Nature of the assay: KINOMEscan binding assay at 1 μM, PLK4. As to conditions: Compound Concentration 1000 nM; read-out: Percent Control.
Text: as §2

In the next assay the target is T35, PRKD1 (Homo sapiens, UniProt Q15139).
T35 construct: purchased Eurofins DiscoverX KINOMEscan
Put plainly: KINOMEscan binding assay at 1 μM, PRKD1. As to conditions: Compound Concentration 1000 nM; read-out: Percent Control.
Text: as §2

T12 sequence (P61075 whole entry): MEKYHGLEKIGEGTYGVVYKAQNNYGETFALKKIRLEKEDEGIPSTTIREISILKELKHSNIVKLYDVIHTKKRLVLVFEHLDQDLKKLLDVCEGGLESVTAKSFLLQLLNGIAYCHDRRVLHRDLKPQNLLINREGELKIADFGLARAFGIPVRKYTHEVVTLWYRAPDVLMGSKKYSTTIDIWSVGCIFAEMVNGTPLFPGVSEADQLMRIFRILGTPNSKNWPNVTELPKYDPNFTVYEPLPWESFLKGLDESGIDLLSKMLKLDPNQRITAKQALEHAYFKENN
T6 sequence (P07333 20-972): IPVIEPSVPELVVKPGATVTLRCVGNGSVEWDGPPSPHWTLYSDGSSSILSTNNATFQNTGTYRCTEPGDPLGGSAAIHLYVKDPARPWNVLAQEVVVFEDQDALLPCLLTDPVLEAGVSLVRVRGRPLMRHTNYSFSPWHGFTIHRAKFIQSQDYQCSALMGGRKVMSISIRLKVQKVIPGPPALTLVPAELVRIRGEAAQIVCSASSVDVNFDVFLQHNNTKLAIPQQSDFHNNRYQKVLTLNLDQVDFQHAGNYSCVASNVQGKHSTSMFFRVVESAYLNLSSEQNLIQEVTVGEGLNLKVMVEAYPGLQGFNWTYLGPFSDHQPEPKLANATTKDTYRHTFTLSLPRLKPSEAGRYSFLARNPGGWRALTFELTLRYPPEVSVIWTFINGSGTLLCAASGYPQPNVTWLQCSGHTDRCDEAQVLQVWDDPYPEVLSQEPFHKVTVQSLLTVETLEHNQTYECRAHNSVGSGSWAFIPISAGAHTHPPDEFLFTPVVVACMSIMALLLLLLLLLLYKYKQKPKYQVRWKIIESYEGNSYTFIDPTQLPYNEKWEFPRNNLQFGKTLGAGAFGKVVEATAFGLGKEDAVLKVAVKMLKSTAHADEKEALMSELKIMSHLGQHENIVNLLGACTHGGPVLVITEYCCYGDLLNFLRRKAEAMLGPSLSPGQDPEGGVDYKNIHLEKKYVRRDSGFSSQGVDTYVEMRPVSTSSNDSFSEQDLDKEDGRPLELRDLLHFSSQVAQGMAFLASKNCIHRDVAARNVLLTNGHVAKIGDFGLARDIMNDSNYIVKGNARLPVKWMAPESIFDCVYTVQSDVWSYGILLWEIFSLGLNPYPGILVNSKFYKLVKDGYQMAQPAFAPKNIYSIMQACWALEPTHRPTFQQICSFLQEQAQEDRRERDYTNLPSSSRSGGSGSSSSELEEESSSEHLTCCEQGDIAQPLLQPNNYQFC
T21 sequence (P42336 whole entry E542K): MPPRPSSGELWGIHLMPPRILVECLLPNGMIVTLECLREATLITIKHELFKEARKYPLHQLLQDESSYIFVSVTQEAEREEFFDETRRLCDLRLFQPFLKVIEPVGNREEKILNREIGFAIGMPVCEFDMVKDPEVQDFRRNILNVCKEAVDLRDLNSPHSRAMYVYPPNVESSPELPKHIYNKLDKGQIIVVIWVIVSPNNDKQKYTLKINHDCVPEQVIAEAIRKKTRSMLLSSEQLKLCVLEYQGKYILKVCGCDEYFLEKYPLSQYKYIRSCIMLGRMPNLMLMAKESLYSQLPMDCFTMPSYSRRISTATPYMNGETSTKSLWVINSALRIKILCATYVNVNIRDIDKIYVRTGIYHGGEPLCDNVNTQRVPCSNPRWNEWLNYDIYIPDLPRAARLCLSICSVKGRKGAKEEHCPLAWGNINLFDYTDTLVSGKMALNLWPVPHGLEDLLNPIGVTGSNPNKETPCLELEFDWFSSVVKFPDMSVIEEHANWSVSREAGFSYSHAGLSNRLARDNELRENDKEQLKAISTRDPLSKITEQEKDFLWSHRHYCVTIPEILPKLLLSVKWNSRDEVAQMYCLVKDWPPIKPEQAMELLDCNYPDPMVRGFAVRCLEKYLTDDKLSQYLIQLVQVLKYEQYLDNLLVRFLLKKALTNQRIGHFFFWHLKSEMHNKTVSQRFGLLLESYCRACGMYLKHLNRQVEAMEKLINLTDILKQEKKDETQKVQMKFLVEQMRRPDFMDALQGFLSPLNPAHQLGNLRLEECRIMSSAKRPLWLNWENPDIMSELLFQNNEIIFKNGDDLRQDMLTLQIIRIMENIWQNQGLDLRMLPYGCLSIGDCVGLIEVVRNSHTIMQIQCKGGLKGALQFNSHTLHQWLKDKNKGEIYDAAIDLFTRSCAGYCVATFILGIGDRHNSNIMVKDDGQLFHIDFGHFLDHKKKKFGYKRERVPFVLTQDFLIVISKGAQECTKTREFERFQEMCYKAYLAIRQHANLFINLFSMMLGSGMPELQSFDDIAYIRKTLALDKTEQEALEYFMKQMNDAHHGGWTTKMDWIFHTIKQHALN
T31 sequence (P04626 23-1255): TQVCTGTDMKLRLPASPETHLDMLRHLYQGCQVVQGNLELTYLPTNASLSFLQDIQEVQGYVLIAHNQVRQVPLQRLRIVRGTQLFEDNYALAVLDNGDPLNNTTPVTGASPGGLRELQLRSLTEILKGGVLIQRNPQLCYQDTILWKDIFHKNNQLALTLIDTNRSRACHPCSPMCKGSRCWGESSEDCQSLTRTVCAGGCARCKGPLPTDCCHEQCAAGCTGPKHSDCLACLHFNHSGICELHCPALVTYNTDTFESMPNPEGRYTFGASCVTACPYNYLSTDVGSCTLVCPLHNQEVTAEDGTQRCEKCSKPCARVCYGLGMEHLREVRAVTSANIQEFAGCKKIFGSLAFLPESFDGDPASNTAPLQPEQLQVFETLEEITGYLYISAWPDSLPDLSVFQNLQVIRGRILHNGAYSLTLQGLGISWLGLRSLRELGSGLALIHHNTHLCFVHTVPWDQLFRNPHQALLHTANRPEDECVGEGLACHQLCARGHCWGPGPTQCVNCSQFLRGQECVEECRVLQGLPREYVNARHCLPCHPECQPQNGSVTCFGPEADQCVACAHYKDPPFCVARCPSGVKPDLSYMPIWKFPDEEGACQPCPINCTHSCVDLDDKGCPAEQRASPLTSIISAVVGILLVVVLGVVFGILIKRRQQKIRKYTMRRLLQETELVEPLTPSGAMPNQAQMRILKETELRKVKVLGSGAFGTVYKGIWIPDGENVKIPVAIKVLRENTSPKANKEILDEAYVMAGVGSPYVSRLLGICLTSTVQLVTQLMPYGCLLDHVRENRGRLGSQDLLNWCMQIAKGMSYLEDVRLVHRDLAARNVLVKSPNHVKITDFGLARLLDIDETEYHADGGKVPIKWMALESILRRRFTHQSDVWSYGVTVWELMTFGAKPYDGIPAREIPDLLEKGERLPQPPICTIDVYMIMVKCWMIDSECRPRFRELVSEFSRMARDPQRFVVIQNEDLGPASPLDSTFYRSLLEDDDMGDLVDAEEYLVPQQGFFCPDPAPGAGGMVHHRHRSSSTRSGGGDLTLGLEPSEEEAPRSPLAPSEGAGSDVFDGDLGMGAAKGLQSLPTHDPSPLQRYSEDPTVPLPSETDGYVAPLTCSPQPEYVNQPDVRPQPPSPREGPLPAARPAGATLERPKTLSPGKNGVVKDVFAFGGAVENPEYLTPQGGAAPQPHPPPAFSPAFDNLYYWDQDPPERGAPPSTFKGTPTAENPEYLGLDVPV
T9 sequence (O75460 19-977): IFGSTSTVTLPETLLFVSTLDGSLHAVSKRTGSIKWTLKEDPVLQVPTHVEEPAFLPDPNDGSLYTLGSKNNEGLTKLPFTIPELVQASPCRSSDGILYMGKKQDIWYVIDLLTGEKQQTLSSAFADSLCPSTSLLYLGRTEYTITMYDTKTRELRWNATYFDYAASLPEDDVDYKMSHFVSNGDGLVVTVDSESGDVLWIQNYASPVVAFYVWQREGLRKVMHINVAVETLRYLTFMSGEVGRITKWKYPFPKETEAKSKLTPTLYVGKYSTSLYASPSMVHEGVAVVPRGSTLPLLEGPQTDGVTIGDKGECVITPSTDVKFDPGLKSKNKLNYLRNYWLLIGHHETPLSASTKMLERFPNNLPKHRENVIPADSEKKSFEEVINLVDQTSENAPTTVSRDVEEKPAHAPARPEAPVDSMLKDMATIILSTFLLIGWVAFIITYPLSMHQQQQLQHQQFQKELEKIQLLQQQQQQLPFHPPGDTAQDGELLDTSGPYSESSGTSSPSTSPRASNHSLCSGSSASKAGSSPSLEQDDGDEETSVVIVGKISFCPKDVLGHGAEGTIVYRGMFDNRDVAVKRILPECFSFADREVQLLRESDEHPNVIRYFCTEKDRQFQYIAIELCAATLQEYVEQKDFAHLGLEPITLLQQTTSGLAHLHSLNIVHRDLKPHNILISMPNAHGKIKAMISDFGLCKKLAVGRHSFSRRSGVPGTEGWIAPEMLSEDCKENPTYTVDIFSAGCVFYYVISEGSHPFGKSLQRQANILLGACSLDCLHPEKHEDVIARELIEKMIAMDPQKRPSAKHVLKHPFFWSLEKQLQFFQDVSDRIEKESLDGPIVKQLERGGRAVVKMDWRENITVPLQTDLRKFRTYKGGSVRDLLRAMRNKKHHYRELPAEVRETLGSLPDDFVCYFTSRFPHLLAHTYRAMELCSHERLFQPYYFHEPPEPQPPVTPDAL
T13 sequence (P49841 whole entry): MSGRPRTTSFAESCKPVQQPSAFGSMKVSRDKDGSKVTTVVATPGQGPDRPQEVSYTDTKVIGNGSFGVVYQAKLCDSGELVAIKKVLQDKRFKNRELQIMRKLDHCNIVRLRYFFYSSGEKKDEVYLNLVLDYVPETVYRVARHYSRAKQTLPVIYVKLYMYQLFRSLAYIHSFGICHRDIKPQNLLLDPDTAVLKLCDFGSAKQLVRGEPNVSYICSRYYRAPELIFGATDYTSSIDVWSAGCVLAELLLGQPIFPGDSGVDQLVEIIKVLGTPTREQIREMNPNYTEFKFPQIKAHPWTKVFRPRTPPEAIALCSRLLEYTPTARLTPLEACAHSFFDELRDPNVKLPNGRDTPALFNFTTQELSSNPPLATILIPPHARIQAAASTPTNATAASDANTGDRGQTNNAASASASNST

For the molecule `Cc1cccc(-c2cnc3occ(-c4ccc(C(=O)O)c(C5CCCC5)c4)c3c2)c1` [SGC-CAMKK2-1 (YL-36)], the remaining binding at 1 µM at PIM3 turned out to be 77%; on LKB1, 78%; at CDC2L2, 84%; on NEK1, 85%; at EGFR it was 91%; on CSF1R it was 100%. The remaining binding at 1 µM on DCAMKL3, at DRAK2, at ERN1, at GRK3, at ICK and on PFPK5(P.falciparum) was 100% throughout. In addition, the “Percent Control” value in the assay on EGFR(L747-T751del,Sins) is on record as 85%.
With `O=C(O)c1ccc(-c2coc3ncc(-c4ccccc4)cc23)cc1Cl` [SGC-CAMKK2-1N (UNC-YL-83)], the remaining binding at 1 µM on GSK3B was 47%; on EPHB3, 53%; on FGR, 54%; at EPHB4, 56%; on PAK6 it was 63%; in [1] it was 69%. In addition, the remaining binding at 1 µM on MST2 stood at 79%; on PRKCI, 79%; on PIK3CA(E542K), 81%; on ARK5 it was 84%; on ACVR1 it was 85%; at AAK1, 87%. In addition, the remaining binding at 1 µM came to 89% on MEK3; 91% on FLT3-autoinhibited; 92% at TLK1; 96% on BRK; 97% on SRC; 100% at EPHA6. For the same molecule, the remaining binding at 1 µM at ERBB2, on MAP3K15, on NEK9, on PLK4 and on PRKD1 was 100% in each case.
